According to ChEMBL document CHEMBL1150488 (1993):
≈ marks a conversion by molar mass, not a printed value.

Tests used:
[1] = test system: Escherichia coli; experiment: Tested in vitro for its antibacterial activity against Escherichia coli UC9379; type: functional
[2] = test system: Streptococcus pyogenes; experiment: Tsted in vitro for its antibacterial activity against Streptococcus pyogenes UC152; type: functional
[3] = test system: Bacteroides fragilis; experiment: Tested for zone of inhibition against Bacteroides fragilis UC6513 (1 mg/mL, 80 microL/12.7 mm); type: functional
[4] = test system: Staphylococcus aureus; experiment: Tested for zone of inhibition against Staphylococcus aureus UC3665 (1 mg/mL, 80 microL/12.7 mm); type: functional
[5] = test system: Staphylococcus aureus; experiment: Tested for zone of inhibition against Staphylococcus aureus UC6685 (1 mg/mL, 80 microL/6.5 mm); type: functional
[6] = test system: Staphylococcus epidermidis; experiment: Tested for zone of inhibition against Staphylococcus epidermidis UC719 (1 mg/mL, 80 microL/6.5 mm); type: functional
[7] = test system: Clostridium perfringens; experiment: The compound (1 mg/mL, 80 microL/12.7 mm) was tested for zone of inhibition against Clostridium perfringens UC6509 (33H -, H: Hazy zone); type: functional
[8] = test system: Staphylococcus aureus; experiment: The compound (1 mg/mL, 80 microL/12.7 mm) was tested for zone of inhibition against Staphylococcus aureus UC3665 (18H -, H: Hazy zone); type: functional
[9] = test system: Parabacteroides distasonis; experiment: Tested in vitro for its antibacterial activity against Bacteroides distasonis UC6518; type: functional
[10] = test system: Bacteroides fragilis; experiment: Tested in vitro for its antibacterial activity against Bacteroides fragilis UC9370 [clindamycin 1 micro g/mL]; type: functional
[11] = test system: Bacteroides thetaiotaomicron; experiment: Tested in vitro for its antibacterial activity against Bacteroides thetaiotaomicron UC 9014[clindamycin 2 micro g/mL]; type: functional
[12] = test system: Prevotella melaninogenica; experiment: Tested in vitro for its antibacterial activity against Bacteroides melaninogenicus UC 6523; type: functional
[13] = test system: Clostridium perfringens; experiment: Tested in vitro for its antibacterial activity against Clostridium perfringens UC6509; type: functional
[14] = test system: Clostridium perfringens; experiment: Tested for zone of inhibition against Clostridium perfringens UC6509; type: functional
[15] = test system: Fusobacterium nucleatum; experiment: Tested in vitro for its antibacterial activity against Fusobacterium nucleatum UC6324; type: functional
[16] = Tested in vitro for its antibacterial activity against Peptococcus variabilis UC6320; type: functional
[17] = test system: Cutibacterium acnes; experiment: Tested in vitro for its antibacterial activity against Propionibacterium acnes UC6564; type: functional
[18] = test system: Staphylococcus aureus; experiment: The compound (1 mg/mL, 80 microL/6.5 mm) was tested for zone of inhibition against Staphylococcus aureus UC6685 (21H -, H: Hazy zone); type: functional
[19] = test system: Staphylococcus epidermidis; experiment: The compound (1 mg/mL, 80 microL/6.5 mm) was tested for zone of inhibition against Staphylococcus epidermidis UC719 (20H -, H: Hazy zone); type: functional
[20] = test system: Bacteroides fragilis; experiment: The compound was tested in vitro for its antibacterial activity against Bacteroides fragilis UC9370; type: functional
[21] = test system: Bacteroides thetaiotaomicron; experiment: The compound was tested in vitro for its antibacterial activity against Bacteroides thetaiotaomicron UC 6360; type: functional
[22] = test system: Bacteroides thetaiotaomicron; experiment: The compound (1 mg/mL, 80 microL/6.5 mm) was tested for zone of inhibition against Bacteroides thetaiotaomicron UC 6360; type: functional
[23] = test system: Staphylococcus epidermidis; experiment: The compound (1 mg/mL, 80 microL/6.5 mm) was tested for zone of inhibition against Staphylococcus epidermidis UC719; Tr = trace; type: functional, organism-based
[24] = test system: Staphylococcus aureus; experiment: The compound (1 mg/mL, 80 microL/6.5 mm) was tested for zone of inhibition against Staphylococcus aureus UC6685; Tr = trace; type: functional, organism-based
[25] = test system: Staphylococcus epidermidis; experiment: The compound (1 mg/mL, 80 microL/6.5 mm) was tested for zone of inhibition against Staphylococcus epidermidis UC719 (14H -, H: Hazy zone); type: functional

SMILES | Diameter of inhibition zone [3] | Diameter of inhibition zone [4] | Diameter of inhibition zone [5] | Diameter of inhibition zone [6] | Diameter of inhibition zone [14] | other results
CO[C@@]1(NC(=O)C(C(=O)O)c2ccc(O)cc2)C(=O)N2C(C(=O)O)=C(CSc3nnnn3C)CO[C@@H]21 (some centres undefined) [MOXALACTAM] |  |  |  |  |  | MIC [1]: 0.06 µg/mL (≈ 0.115 µM); MIC [2]: 0.5 µg/mL (≈ 0.961 µM)
CCCCCC(=O)N1C/C(=C(/C)COC2CCCCO2)C1=O (centres undefined) | 0 mm | 0 mm | 0 mm | 0 diameter mm |  | 
CCCC(=O)OC[C@@H](C)[C@H]1CN(C(=O)c2ccccc2)C1=O | 24 mm |  | 0 mm | 0 mm |  | Diameter of inhibition zone [7]: 33 mm; Diameter of inhibition zone [8]: 18 mm
CCCC(=O)OC[C@@H](C)[C@H]1CN(C(=O)CCC)C1=O |  | 28 mm |  |  | 63 mm | MIC [9]: 128 µg/mL (≈ 475 µM); MIC [10]: 64 µg/mL (≈ 238 µM); MIC [11]: 32 µg/mL (≈ 119 µM); MIC [12]: 8 µg/mL (≈ 29.7 µM); MIC [13]: 128 µg/mL (≈ 475 µM); MIC [1]: > 160 µg/mL; MIC [15]: 64 µg/mL (≈ 238 µM); MIC [16]: 256 µg/mL (≈ 950 µM); MIC [17]: 8 µg/mL (≈ 29.7 µM); MIC [2]: > 160 µg/mL; Diameter of inhibition zone [18]: 21 mm; Diameter of inhibition zone [19]: 20 mm
CC(=O)OC[C@@H](C)[C@H]1CN(C(C)=O)C1=O | 52 mm | 0 mm | 0 mm |  | 36 mm | MIC [9]: > 256 µg/mL; MIC [20]: 256 µg/mL (≈ 1200 µM); MIC [21]: 128 µg/mL (≈ 600 µM); MIC [12]: 128 µg/mL (≈ 600 µM); Diameter of inhibition zone [22]: 0 mm; MIC [13]: > 256 µg/mL; MIC [1]: > 512 µg/mL; MIC [15]: 128 µg/mL (≈ 600 µM); MIC [16]: > 256 µg/mL; MIC [17]: > 256 µg/mL; MIC [2]: > 512 µg/mL
CC(=O)OC/C(C)=C1/CN(C(C)=O)C1=O | 29 mm | 0 mm | 0 mm | 0 mm | 0 mm | 
CC(=O)OC[C@H](C)[C@H]1CN(C(C)=O)C1=O | 20 mm | 0 mm | 0 mm | 0 mm | 0 mm | 
C[C@H]1[C@H](NC(=O)/C(=N\OC(C)(C)C(=O)O)c2csc(N)n2)C(=O)N1S(=O)(=O)O [AZTREONAM] |  |  |  |  |  | MIC [9]: 64 µg/mL (≈ 147 µM); MIC [12]: 4 µg/mL (≈ 9.19 µM); MIC [15]: 4 µg/mL (≈ 9.19 µM); MIC [17]: 2 µg/mL (≈ 4.59 µM)
CCCC(=O)N1C/C(=C(\C)COC(C)=O)C1=O | 31 mm | 18 mm | 8 mm |  | 0 mm | Diameter of inhibition zone [23]: Trace
CCCCCC(=O)N1C/C(=C(\C)CN=[N+]=[N-])C1=O | 52 mm | 27 mm | 27 mm | 19 mm |  | 
CCCC(=O)N1C[C@H]([C@@H](C)COC(C)=O)C1=O | 36 mm | 0 mm | 0 mm | 0 mm | 0 mm | 
CCCCOC(=O)N1C[C@H]([C@H](C)CNC(C)=O)C1=O | 36 mm | 0 mm | 0 mm | 0 mm | 19 mm | 
CCCC(=O)OC[C@H](C)[C@H]1CN(C(=O)CCC)C1=O | 41 mm | 0 mm |  |  | 33 mm | MIC [9]: 256 µg/mL (≈ 950 µM); MIC [10]: 256 µg/mL (≈ 950 µM); MIC [11]: 128 µg/mL (≈ 475 µM); MIC [12]: 64 µg/mL (≈ 238 µM); MIC [13]: > 256 µg/mL; MIC [15]: 256 µg/mL (≈ 950 µM); MIC [16]: 256 µg/mL (≈ 950 µM); MIC [17]: 64 µg/mL (≈ 238 µM); Diameter of inhibition zone [24]: Trace; Diameter of inhibition zone [25]: 14 mm
CCCC(=O)N1C/C(=C(/C)COC(C)=O)C1=O | 31 mm | 0 mm | 0 mm | 0 mm |  | 
CCCCCC(=O)N1C[C@H]([C@H](C)CNC(C)=O)C1=O | 76 mm | 19 mm |  |  |  | Diameter of inhibition zone [24]: Trace; Diameter of inhibition zone [23]: Trace
